Assays:
α-chymotrypsin = type: biochemical, human
trypsin = trypsin (Homo sapiens, UniProt P07477); type: biochemical
thrombin = thrombin (Homo sapiens, UniProt P00734); type: biochemical
Factor Xa = Factor Xa (Homo sapiens, UniProt P00742); type: biochemical
plasmin = plasmin (Homo sapiens, UniProt P00747); type: biochemical
Chain of plasmin (P00747 581-810 limits assumed): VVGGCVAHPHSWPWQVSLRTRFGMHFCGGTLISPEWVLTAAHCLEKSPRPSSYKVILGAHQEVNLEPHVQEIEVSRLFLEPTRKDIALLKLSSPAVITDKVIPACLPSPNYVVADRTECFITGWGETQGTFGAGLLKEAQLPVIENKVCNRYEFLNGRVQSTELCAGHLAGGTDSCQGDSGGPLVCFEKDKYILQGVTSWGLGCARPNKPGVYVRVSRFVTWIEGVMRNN
Chain of plasmin (P00747 97-580 partner limits assumed): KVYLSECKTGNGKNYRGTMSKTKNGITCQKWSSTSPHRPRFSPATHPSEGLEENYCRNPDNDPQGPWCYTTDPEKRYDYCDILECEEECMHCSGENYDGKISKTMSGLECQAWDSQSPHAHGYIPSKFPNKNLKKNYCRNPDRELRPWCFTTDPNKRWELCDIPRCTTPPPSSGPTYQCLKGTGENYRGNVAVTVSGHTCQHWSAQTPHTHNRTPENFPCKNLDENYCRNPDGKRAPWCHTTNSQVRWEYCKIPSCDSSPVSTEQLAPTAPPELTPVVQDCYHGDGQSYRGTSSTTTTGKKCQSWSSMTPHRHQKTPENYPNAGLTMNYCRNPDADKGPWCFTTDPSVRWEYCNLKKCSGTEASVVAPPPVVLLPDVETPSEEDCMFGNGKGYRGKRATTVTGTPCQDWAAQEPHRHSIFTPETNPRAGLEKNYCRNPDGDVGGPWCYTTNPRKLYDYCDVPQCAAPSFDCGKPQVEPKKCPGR

Chain of Factor Xa (P00742 235-488 limits assumed): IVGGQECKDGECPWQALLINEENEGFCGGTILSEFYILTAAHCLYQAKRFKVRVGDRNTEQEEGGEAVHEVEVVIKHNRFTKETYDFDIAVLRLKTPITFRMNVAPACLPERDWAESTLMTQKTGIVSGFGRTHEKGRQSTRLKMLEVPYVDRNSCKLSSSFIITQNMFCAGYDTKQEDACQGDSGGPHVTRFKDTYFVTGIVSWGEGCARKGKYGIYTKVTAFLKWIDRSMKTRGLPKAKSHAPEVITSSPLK
Chain of Factor Xa (P00742 41-179 partner limits assumed): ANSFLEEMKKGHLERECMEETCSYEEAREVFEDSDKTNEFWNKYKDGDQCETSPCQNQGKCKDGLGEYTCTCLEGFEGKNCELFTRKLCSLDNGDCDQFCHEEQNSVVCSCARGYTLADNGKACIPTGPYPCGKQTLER

CC(C)C[C@H](NC(=O)OC1CCN(C(=O)OC(C)(C)C)CC1)C(=O)N[C@@H](C[C@@H]1CCNC1=O)C(O)S(=O)(=O)[O-].[Na+] (some centres unmarked) [GC868]
No or minimal inhibition: inhibition of α-chymotrypsin (α-chymotrypsin) | inhibition of trypsin (trypsin) | inhibition of thrombin (thrombin) | inhibition of Factor Xa (Factor Xa) | inhibition of plasmin (plasmin)

Source: patent publication US11013779B2, “Small molecule therapeutic inhibitors against picornaviruses, caliciviruses, and coronaviruses” (Kansas State University Research Foundation, priority 2016, dated 2021)
